Patent publication US5863916A, “8-aza, 6-aza and 6,8-diaza-1,4-dihydroquinoxaline-2,3-diones and the use thereof as antagonists for the glycine/NMDA receptor” (priority 1997, dated 1999)

Key:
log P (literature) = format: physicochemical; conditions: from benzene to pyridine N-oxide
[1] = test system: strychnine-insensitive glycine sites associated with NMDA receptors; conditions: cited from earlier work

difference in log P (log P (literature)) | SMILES | inhibition of [3H]glycine binding [1]
-3.84 | [O-][n+]1ccccc1 [pyridine N-oxide] | 
 | Oc1nc2cccnc2nc1O [pyrido (2,3-b)pyrazine-2,3-diol] | active inhibitor
